Earlier results on one compound are cited in patent US10413531B2, “Methods of treating bladder cancer” (Abraxis BioScience, LLC, priority 2013, dated 2019).

The conditions of data set [1]: Lin et al. (2013) Int J Cancer.
The test system of data set [2] is ABCB1/ABCG2. Particulars: Lin et al. (2013) Int J Cancer.

Structures are written as SMILES.

Take `COc1ccc(COc2cc3oc(=O)c4cc(C(C)O)ccc4c3cc2OC)cc1` (centres unmarked) [Palomid 529]: the brain penetration entry in data set [1] is on record as “good brain penetration”. Moreover, the “affinity for ABCB1/ABCG2” value in data set [2] is “lacks affinity for ABCB1/ABCG2”.
